Reference: patent publication US7604990B2, “Methods of regulating differentiation in stem cells” (ES Cell International Pte Ltd., priority 2002, dated 2009)
Entries after “also recorded” stand apart in the source; their conditions may differ.

Tests used:
Assay type in all cases: cell-based, human
hES cells [1] = test: ELISA-based GCTM-2 quantification in hES cells (Example 2)
Experimental: (§1) hES-3 cells were cultured as previously described^1. The serum-free culture medium consisted of DMEM (without sodium pyruvate, glucose 4500 mg/l, Invitrogen, Mount Waverley, VIC, Australia) supplemented with insulin/transferrin/selenium 1%, β-mercaptoethanol 0.1 mM, NEAA 1%, glutamine 2 mM, Hepes 25 mM, penicillin 50 U/ml and streptomycin […] (all from Invitrogen). Media was changed every 2 days and cells were passaged every week S1P and dihydro-S1P were obtained from Biomol (Plymouth Meeting, Pa., USA). LPA was obtained from Sigma (Castle Hill, NSW, Australia). Extemporaneous dilutions of all lipids were made in water containing 0.1% fatty acid-free bovine serum albumin (BSA) (Sigma). S1P and dihydro-S1P were used at 10 mM. Human PDGF-AB, PDGF-AA, PDGF-BB were from Prepro Tech Inc. (Rocky Hill, N.J., USA) and were used at 20 ng/ml.
Cells were fixed in 100% ethanol and immunostained with GCTM-2 followed by alkaline phosphatase-coupled secondary antibodies (Dako). Alkaline phosphatase activity was detected by adding a solution of 4-nitrophenyl phosphate (Roche), and the concentration of the reaction product was determined by reading the optical density (OD) at 405 nm. In order to validate the technique as an accurate indicator of the proportion of GCTM-2 positive cells, standard curves were carried out with the embryonal carcinoma cell line GCT27C4, known to express GCTM-2^20.

[2] = tested on: ERKs (Erk1 and Erk2) in hES cells; test: ERK phosphorylation Western blot in hES cells (Example 1)
Experimental: RT-PCR for LPL receptors (A, B), PDGFR-[…] (alpha) and PDGFR-[…] (beta) (C), SPK-1 and SPK-2 (D), with (+) or without (−) RT. Immunostaining of hES cells with Hoechst 33342 (E, H), PDGFR-[…] (F) or PDGFR-[…] (I) and GCTM-2 (G, J) antibodies. S1P, LPA and PDGF stimulate ERKs phosphorylation in hES cells. (K) Western blots experiment were performed using protein lysate from hES cells. Cells were pre-treated or not with U0126 (30 μM, 1 hr) and incubated for 5 min in the absence (C, control) or presence of S1P (S, 10 μM), LPA (L, […]) or PDGF (P, 20 ng/ml). The phosphorylation of Erk1 and Erk2 (P-Erk1 and P-Erk2) was assessed by immunoblotting with a polyclonal anti-active MAP kinase as described in Materials and Methods. After a stripping procedure, the same blots were reprobed with a monoclonal anti-MAP kinase, allowed the detection of Erk1 and Erk2.
hES-3 cells plated without MEF for 24 hrs were depleted of serum for a further 18 hrs. Cells pre-treated or not with U0126 (Sigma, 30 μM, 1 hr), were incubated in the presence of the different agents for 5 min and were lysed by removal of the supernatants and addition of a reducing loading buffer containing 1 mM sodium orthovanadate (Sigma). Protein lysates (approx. 80 μg) were separated by SDS-polyacrylamide gel electrophoresis (10% polyacrylamide, w/v), transferred to nitrocellulose (Hybond-nitrocellulose, Amersham) and immunoblotting was carried out using rabbit polyclonal anti-active mitogen-activated protein (MAPK) antibodies raised against a dually phosphorylated MAPK peptide (Promega, Madison, Wis., USA). Peroxidase-coupled secondary antibody (Dako) was detected by exposure of autoradiographic films in the presence of a chemiluminescent detection reagent (ECL, Amersham). Stripping of antibodies was achieved and membranes were then reprobed with rabbit polyclonal anti-ERK1/2 antibodies (Promega), and then with peroxidase-coupled secondary antibodies (Dako). Membranes probed with either rabbit polyclonal anti-active p38 (Promega) or rabbit polyclonal anti-active JNK (Promega) antibodies were also performed, using the same procedure as described above.

[3] = tested on: ERKs (Erk1 and Erk2) in hES cells; test: ERK phosphorylation Western blot in hES cells (Example 5); conditions: U0126 30 μM, 1 hr pre-treatment
Experimental: Western blots experiments were performed using protein lysate from hES cells. (A) Cells were pre-treated or not with U0126 (30 μM, 1 hr) and incubated for 5 min in the absence (C, control) or presence of S1P (10 μM). (B) Cells were incubated for different time periods in the absence or presence of S1P (10 μM). (C) Cells were incubated for 5 min with various concentrations of S1P. The phosphorylation of Erk1 and Erk2 (P-Erk1 and P-Erk2) was assessed by immunoblotting with a polyclonal anti-active MAP kinase as described in Materials and Methods. After a stripping procedure, the same blots reprobed with a monoclonal anti-MAP kinase, allowed the detection of Erk1 and Erk2.
For immunoblot analysis, cells were transferred into 24 well plates (8 colonies per well) without MEFs, and 24 hr later, were grown in the absence of serum for 18 hrs.
In some experiments, cells were pre-treated for 1 hr with U0126 (30 μM) or for 18 hrs with PTX (100 μg/ml).
hES3 cells were lysed following removal of the supernatants by addition of a reducing loading buffer (2% SDS, 62.5 mM Tris pH 6.8, 0.1 M DTT, 0.01% bromophenol blue) containing 1 mM sodium orthovanadate. Samples were boiled for 10 min and centrifuged at 13000 g for 15 min, and protein lysates (approx. 80 μg) were separated by SDS-polyacrylamide gel electrophoresis (10% polyacrylamide, w/v). Proteins were transferred to nitrocellulose (Hybond-ECL, Amersham) and immunoblotting was carried out with rabbit polyclonal anti-active mitogen-activated protein (MAPK) antibodies raised against a dually phosphorylated MAPK peptide (Promega, Madison, Wis., USA). Peroxidase-coupled secondary antibody (Dako) was detected by exposure of autoradiographic films in the presence of a chemiluminescent detection reagent (ECL, Amersham). Stripping of antibodies was achieved by incubating the membrane during 30 min at 50° C. in a buffer containing 100 mM mercaptoethanol, 2% SDS, 62.5 mM Tris-HCl pH 6.7. The membrane was then reprobing with rabbit polyclonal anti-ERK1/2 antibodies (Promega), and then with peroxidase-coupled secondary antibodies (Dako).

hES cells [4] = test: Spontaneous differentiation of hES colonies on MEF in serum-free medium, morphology (Example 1); conditions: 8 days serum-free on MEF; S1P 10 μM, PDGF 20 ng/ml, LPA up to 50 μM
Experimental: (A) hES cells grown with MEF, before the depletion of serum from the medium. (B, C, D, E) hES cells grown without serum after 8 days, in the absence (B) or in the presence of S1P (10 μM) (C), PDGF (20 ng/ml) (D), S1P (10 μM) plus PDGF (20 ng/ml) (E). (F) hES cells grown without serum, in the presence or in the absence (control) of S1P (10 μM), PDGF (20 ng/ml), S1P (10 μM) plus PDGF (20 ng/ml). In A-E, data are representative of at least 3 independent experiments. In F, data expressed as percentages of alkaline phosphatase activity in absence of serum for eight days (% of control), are the means±SEM of at least 2 independent experiments, each run in triplicate.
hES-3 cells were cultured as previously described^1. The serum-free culture medium consisted of DMEM (without sodium pyruvate, glucose 4500 mg/l, Invitrogen, Mount Waverley, VIC, Australia) supplemented with insulin/transferrin/selenium 1%, β-mercaptoethanol 0.1 mM, NEAA 1%, glutamine 2 mM, Hepes 25 mM, penicillin 50 U/ml and streptomycin […] (all from Invitrogen). Medium was changed every 2 days and cells were passaged every week. S1P and dihydro-S1P were obtained from Biomol (Plymouth Meeting, Pa., USA) and were dissolved in methanol. LPA was obtained from Sigma (Castle Hill, NSW, Australia) and was dissolved in ethanol. Extemporaneous dilutions of all lipids were made in water containing 0.1% fatty acid-free bovine serum albumin (BSA) (Sigma). Human PDGF-AB, PDGF-AA, PDGF-BB were from PreproTech Inc. (Rocky Hill, N.J., USA).

hES cells [5] = test: Spontaneous differentiation of hES colonies on MEF in serum-free medium, morphology (Example 2); conditions: 2 weeks serum-free on MEF; S1P 10 μM, PDGF-AB 20 ng/ml, LPA up to 50 μM
Experimental: as §1, with “S1P and dihydro-S1P were used at 10 mM.” left out

hES cells [6] = test: Direct observation of hES colonies in serum-depleted medium (Example 4)
Experimental: (A) hES cells grown with feeder, before the depletion in serum. (B) hES cells grown without serum after 8 days (B, C) and 12 days (D, E), in absence (B, D) or presence of S1P (C, E, 10 μM).
For direct observation, hES-3 cells were coated into 12-well plates (3 colonies per well), with or without mouse embryonic feeders (MEFs). The day following the plating, cells were incubated with the different agents in serum free medium containing insulin, transferring and selenium. Media was changed the 2nd day and then every 2 days.

In the case of `CCCCCCCCCCCCC/C=C/[C@@H](O)[C@H](CO)N(C)C` [DMS, dimethylsphingosine], the “effect on PDGF and S1P action (GCTM2)” value (hES cells [1]; DMS 3 µM for 7 days) was “inhibited the effect of PDGF and S1P”.
`N#CC(=C(/N)Sc1ccccc1N)/C(C#N)=C(\N)Sc1ccccc1N` [U0126] was tested, and the “effect on S1P-, LPA- and PDGF-stimulated phosphorylation of ERKs” value ([2]; U0126 30 μM, 1 hr pre-treatment) was “totally inhibited”, the “effect on PDGF and S1P action on GCTM2 expression” value (hES cells [1]; U0126 10 mM for 7 days) was “totally inhibited” and the “effect on S1P-stimulated phosphorylation of ERKs” value [3] was “totally inhibited”.
With lysophosphatidic acid [LPA] the “phosphorylation of ERKs” value ([2]; hES cells, 5 min, S1P 10 μM, LPA 50 M, PDGF 20 ng/ml) was “stimulated the phosphorylation of ERKs”, the “colony growth/morphology (spontaneous differentiation)” value (hES cells [4]) was “did not have an obvious effect on growth of the colonies” and the “size or morphology of hES cell colonies (spontaneous differentiation)” value (hES cells [5]) was “no obvious effect on size or morphology”. The “growth/differentiation of hES colonies on MEFs” value (hES cells [6]; S1P 10 μM 8 days, LPA up to 50 μM 12 days) was “did not seem to affect the growth of the colonies; also recorded: inactive” and the “effect on cell differentiation, hES cells grown without MEFs” value (hES cells [6]; without MEFs, n=3) was “lack of effect”.
